Experimental data taken from BindingDB's records for doi:10.1074/jbc.M114.574061 (AstraZeneca R&D Boston, 2014).

Experiments:
Assay in all cases: Aminoacylation Assay
Conditions in all cases: pH 8
[1] = biological target: Phenylalanine--tRNA ligase alpha/beta subunit (Pseudomonas aeruginosa (strain ATCC 15692 / PAO1 / 1C / PRS 101 / LMG12228), UniProt A0A8B5A132+Q9I0A4)
Method: (§1) Compounds were solubilized in DMSO. Serial 2-fold dilutions covering two concentration ranges, 10 mM to 19.5 μM and 100 μM to 195 nM, were prepared. 0.6 μl/well of the diluted compound solutions (50× the final assay concentration) were added to white 384-well polystyrene assay plates (Thermo Fisher Scientific/Matrix Technology Corp., Hudson, NH). Uninhibited control wells (MAX)received 2 μl of 30% (v/v) DMSO. Baseline wells (MIN) received 2 μl of a solution containing 30% (v/v)DMSO and 15 mM L-phenylalanine (Sigma-Aldrich). Assays were performed in a buffer consisting of 50 mM Tris-HCl (pH 8.0), 50 mM NH4Cl, 10 mM MgCl2, 2 mM DTT, 0.005% Tween 20 (Surfact-Amps-20, Thermo Fisher Scientific/Pierce Protein Research products, Suwanee, GA), and 0.1 mM EDTA-NaOH (pH 8.0). Compounds were preincubated with 15 μl/well of either 2 nM E. coli PheRS, 2 nM H. influenzae PheRS, or 0.8 nM P. aeruginosa PheRS in buffer for 30 min at 2× final assay concentrations. The reactions were initiated with 15 μl/well of a 2× substrate solution in buffer containing 2 μM E. coli phenylalanine tRNA (Sigma-Aldrich), 100 μM ATP, and 2 μM [3H]Phe with a specific radioactivity of 6.3 Ci/mmol (PerkinElmer Life Sciences). The reactions were quenched after 30 min with 15 μl/well of a solution containing 4 mg/ml PVT/PEI/WGA type A SPA beads (PerkinElmer Life Sciences), 262 mM sodium citrate (pH 2.0), and 150 mM NaCl. The plates were sealed with transparent film (PerkinElmer Life Sciences). The beads were allowed to settle for a minimum of 2 h before scintillation counting with a Top-Count plate reader (PerkinElmer Life Sciences). [3H] counts (CPM) for aminoacylated tRNA were measured for 1 min/well.

[2] = biological target: Phenylalanine--tRNA ligase alpha/beta subunit (Escherichia coli (strain K12), UniProt P07395+P08312)
Chain of Phenylalanine--tRNA ligase alpha/beta subunit (Escherichia coli (strain K12), UniProt P07395+P08312) (P08312 whole entry): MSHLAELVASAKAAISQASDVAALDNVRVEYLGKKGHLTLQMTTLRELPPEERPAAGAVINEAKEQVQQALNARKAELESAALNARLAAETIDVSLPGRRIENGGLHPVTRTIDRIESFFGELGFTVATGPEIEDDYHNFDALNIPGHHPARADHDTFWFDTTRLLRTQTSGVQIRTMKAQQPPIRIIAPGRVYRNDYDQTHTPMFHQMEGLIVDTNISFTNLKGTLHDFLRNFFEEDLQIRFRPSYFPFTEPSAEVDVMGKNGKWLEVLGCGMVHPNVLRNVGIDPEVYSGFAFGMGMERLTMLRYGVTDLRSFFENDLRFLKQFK
Chain of Phenylalanine--tRNA ligase alpha/beta subunit (Escherichia coli (strain K12), UniProt P07395+P08312) (P07395 whole entry): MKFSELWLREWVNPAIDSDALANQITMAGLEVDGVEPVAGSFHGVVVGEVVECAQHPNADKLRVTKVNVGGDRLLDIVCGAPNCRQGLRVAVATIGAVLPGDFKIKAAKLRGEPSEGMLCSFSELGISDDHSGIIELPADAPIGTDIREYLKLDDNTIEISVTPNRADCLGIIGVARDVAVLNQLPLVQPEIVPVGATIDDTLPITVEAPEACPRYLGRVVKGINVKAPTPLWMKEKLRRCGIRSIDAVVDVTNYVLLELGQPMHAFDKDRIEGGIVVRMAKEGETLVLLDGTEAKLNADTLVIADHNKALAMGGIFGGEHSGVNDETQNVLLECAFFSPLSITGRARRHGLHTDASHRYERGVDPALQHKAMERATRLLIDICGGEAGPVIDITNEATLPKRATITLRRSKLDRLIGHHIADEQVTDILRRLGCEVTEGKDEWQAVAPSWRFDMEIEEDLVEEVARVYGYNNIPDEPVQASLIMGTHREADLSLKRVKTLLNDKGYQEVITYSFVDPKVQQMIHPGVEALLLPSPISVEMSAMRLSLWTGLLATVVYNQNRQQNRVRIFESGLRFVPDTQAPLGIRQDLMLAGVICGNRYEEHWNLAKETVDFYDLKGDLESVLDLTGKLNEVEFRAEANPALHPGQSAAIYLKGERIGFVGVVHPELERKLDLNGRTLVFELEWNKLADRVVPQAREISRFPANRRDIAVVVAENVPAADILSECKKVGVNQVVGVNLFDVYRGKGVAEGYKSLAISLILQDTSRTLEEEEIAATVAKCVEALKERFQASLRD
Method: as §1

[3] = biological target: Phenylalanine--tRNA ligase alpha/beta subunit (Pseudomonas aeruginosa, UniProt Q9I0A3+Q9I0A4)
Chain of Phenylalanine--tRNA ligase alpha/beta subunit (Pseudomonas aeruginosa, UniProt Q9I0A3+Q9I0A4) (Q9I0A3 whole entry): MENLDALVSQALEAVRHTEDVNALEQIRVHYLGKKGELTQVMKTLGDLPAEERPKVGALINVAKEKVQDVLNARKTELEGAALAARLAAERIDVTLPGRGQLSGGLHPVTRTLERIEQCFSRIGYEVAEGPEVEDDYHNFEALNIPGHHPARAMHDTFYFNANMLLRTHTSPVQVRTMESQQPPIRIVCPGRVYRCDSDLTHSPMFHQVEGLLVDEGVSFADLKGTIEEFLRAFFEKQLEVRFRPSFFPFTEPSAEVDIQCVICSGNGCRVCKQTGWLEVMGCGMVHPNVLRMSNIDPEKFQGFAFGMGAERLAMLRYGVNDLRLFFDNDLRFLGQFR
Chain of Phenylalanine--tRNA ligase alpha/beta subunit (Pseudomonas aeruginosa, UniProt Q9I0A3+Q9I0A4) (Q9I0A4 whole entry): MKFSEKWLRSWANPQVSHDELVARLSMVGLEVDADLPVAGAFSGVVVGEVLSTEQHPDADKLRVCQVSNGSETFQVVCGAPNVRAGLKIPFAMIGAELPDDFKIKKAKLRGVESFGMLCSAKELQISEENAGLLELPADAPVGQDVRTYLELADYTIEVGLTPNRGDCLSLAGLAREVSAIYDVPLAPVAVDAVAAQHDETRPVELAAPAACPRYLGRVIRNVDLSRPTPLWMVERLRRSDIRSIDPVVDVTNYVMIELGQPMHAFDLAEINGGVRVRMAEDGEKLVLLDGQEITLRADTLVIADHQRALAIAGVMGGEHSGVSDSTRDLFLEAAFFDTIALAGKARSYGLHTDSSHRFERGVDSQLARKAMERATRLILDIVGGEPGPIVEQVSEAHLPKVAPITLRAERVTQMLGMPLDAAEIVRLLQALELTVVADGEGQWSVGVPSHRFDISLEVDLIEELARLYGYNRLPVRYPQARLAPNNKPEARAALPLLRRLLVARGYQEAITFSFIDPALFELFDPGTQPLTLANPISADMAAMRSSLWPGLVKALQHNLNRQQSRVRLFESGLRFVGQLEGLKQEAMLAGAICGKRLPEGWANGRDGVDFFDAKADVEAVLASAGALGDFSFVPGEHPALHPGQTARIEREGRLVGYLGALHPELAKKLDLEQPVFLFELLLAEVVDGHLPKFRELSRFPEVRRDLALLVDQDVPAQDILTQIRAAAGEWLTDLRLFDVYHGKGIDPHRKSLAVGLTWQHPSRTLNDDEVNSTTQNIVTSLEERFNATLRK
Method: as §1

Chain of Phenylalanine--tRNA ligase alpha/beta subunit (Pseudomonas aeruginosa (strain ATCC 15692 / PAO1 / 1C / PRS 101 / LMG12228), UniProt A0A8B5A132+Q9I0A4) (A0A8B5A132 whole entry): as the sequence (Q9I0A3 whole entry) above
Chain of Phenylalanine--tRNA ligase alpha/beta subunit (Pseudomonas aeruginosa (strain ATCC 15692 / PAO1 / 1C / PRS 101 / LMG12228), UniProt A0A8B5A132+Q9I0A4) (Q9I0A4 whole entry): as the sequence (Q9I0A4 whole entry) above

With O=C(Nc1cccc(S(=O)(=O)N2CCN(c3ccccn3)CC2)c1)Nc1nccs1 [1-(3-(4-(Pyridin-2-yl)piperazin-1-ylsulfonyl)phenyl)-3-(thiazol-2-yl)urea (1a)] the IC50 [1] was 0.022 µM and the IC50 [2] was 0.0027 µM.
CNC(=O)COc1cccc(Nc2cc(Cl)ccn2)c1 [2-(3-(4-Chloropyridin-2-ylamino)phenoxy)-N-methylacetamide (2a)] showed an IC50 [1] of 82 µM and an IC50 [2] of 1.4 µM.
CNC(=O)COc1cccc(Nc2cc(C#N)ccn2)c1 [2-(3-(4-Cyanopyridin-2-ylamino)phenoxy)-N-methylacetamide (2b)] was tested, and the IC50 [1] was 41 µM and the IC50 [2] was 0.56 µM.
COc1cccc(-c2ncc(C(F)(F)F)[nH]2)c1 [2-(3-methoxyphenyl)-5-(trifluoromethyl)-1H-imidazole (3d)] was tested, and the IC50 [2] was 16 µM and the IC50 [3] was > 200 µM.
NS(=O)(=O)CCNC(=O)c1csc(COc2ccc(Cl)cc2)n1 [2-((4-Chlorophenoxy)methyl)-N-(2-sulfamoylethyl)thiazole-4-carboxamide (4c)] showed an IC50 [1] of 26 µM and an IC50 [2] of 0.19 µM.
N#CCNC(=O)c1csc(COc2ccc(Cl)cc2)n1 [2-((4-Chlorophenoxy)methyl)-N-(cyanomethyl)thiazole-4-carboxamide (4b)] was tested, and the IC50 [1] was 13 µM and the IC50 [2] was 0.1 µM.
For O=C(COc1cccc(Nc2cc(Cl)ccn2)c1)NC1CCS(=O)(=O)C1 (stereo unspecified) [2-[3-[(4-Chloro-2-pyridyl)amino]phenoxy]-N-(1,1-dioxothiolan-3-yl)acetamide (2c)], the IC50 [1] was 34 µM and the IC50 [2] was 0.1 µM.
Work on COc1cccc(-c2cc(C(F)(F)F)n[nH]2)c1 [5-(3-Methoxyphenyl)-3-(trifluoromethyl)-1H-pyrazole (3a)] yielded an IC50 [2] of 0.06 µM and an IC50 [3] of 10 µM.
Work on CCOC(=O)COc1cccc(-c2cc(C(F)F)n[nH]2)c1 [Ethyl 2-(3-(3-(difluoromethyl)-1H-pyrazol-5-yl)phenoxy)acetate (3c)] yielded an IC50 [2] of 1 µM and an IC50 [3] of 59 µM.
For CCOC(=O)COc1cccc(-c2cc(C(F)(F)F)[nH]n2)c1 [Ethyl 2-(3-(5-(trifluoromethyl)-1H-pyrazol-3-yl)phenoxy)acetate (3b)], the IC50 [2] was 0.08 µM and the IC50 [3] was 11 µM.
With Cc1ccc(OCc2nc(C(=O)NC3CCS(=O)(=O)C3)cs2)cc1 (stereo unspecified) [N-(1,1-dioxothiolan-3-yl)-2-[(4-methylphenoxy)methyl]thiazole-4-carboxamide (4a)] the IC50 [1] was 80 µM and the IC50 [2] was 1.4 µM.
CS(=O)(=O)C1(CCNC(=O)COc2cccc(-c3cc(C(F)(F)F)[nH]n3)c2)CC1 [N-(2-(1-(methylsulfonyl)cyclopropyl)ethyl)-2-(3-(5-(trifluoromethyl)-1H-pyrazol-3-yl)phenoxy)acetamide (3e)] showed an IC50 [2] of 0.07 µM and an IC50 [3] of 4.2 µM.
In the case of O=C(Nc1cccc(S(=O)(=O)NCCc2c[nH]c3ccccc23)c1)Nc1nccs1 [N-(2-(1H-indol-3-yl)ethyl)-3-(3-thiazol-2-ylureido)benzenesulfonamide (1b)], the IC50 [2] is reported as 0.0022 µM and the IC50 [3] is reported as 0.013 µM.
